# PubChem BioAssay AID2060901 (Molecular Pharmacology Branch, DTP, NCI, 2025)
# Values joined by “and” are separate entries in the source; they are usually repeats but may differ in a detail not shown here. Equal values may be shown once.
# Tested on: 422866-222-R5-J1-PDC complex spheroids viability
# Assay: Anticancer human tumor 422866-222-R5-J1-PDC patient-derived pancreatic adenocarcinoma cell line growth inhibition [RAS]
# Conditions: for viability, T/C: stronger effect = lower value
# In short: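 Tumour cells grown as complex spheroids with HUVEC endothelial cells and mesenchymal stem cells, treated with RAS pathway inhibitor combinations. Each agent spans half-log steps from near clinical Cmax, or 10 microM where Cmax is unknown.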
# [1] = curve of first compound, second compound 0.000949 µM
# [2] = curve of first compound, second compound 0.003 µM
# [3] = curve of first compound, second compound 0.00949 µM
# [4] = curve of first compound, second compound 0.03 µM
# [5] = curve of first compound, second compound 0.0949 µM
# [6] = curve of first compound, second compound 0.3 µM
# [7] = second compound 0.000949 µM, first compound 0.00316 µM
# [8] = second compound 0.000949 µM, first compound 0.01 µM
# [9] = second compound 0.000949 µM, first compound 0.0316 µM
# [10] = second compound 0.000949 µM, first compound 0.1 µM
# [11] = second compound 0.000949 µM, first compound 0.316 µM
# [12] = second compound 0.000949 µM, first compound 1 µM
# [13] = second compound 0.003 µM, first compound 0.00316 µM
# [14] = second compound 0.003 µM, first compound 0.01 µM
# [15] = second compound 0.003 µM, first compound 0.0316 µM
# [16] = second compound 0.003 µM, first compound 0.1 µM
# [17] = second compound 0.003 µM, first compound 0.316 µM
# [18] = second compound 0.003 µM, first compound 1 µM
# [19] = second compound 0.00949 µM, first compound 0.00316 µM
# [20] = second compound 0.00949 µM, first compound 0.01 µM
# [21] = second compound 0.00949 µM, first compound 0.0316 µM
# [22] = second compound 0.00949 µM, first compound 0.1 µM
# [23] = second compound 0.00949 µM, first compound 0.316 µM
# [24] = second compound 0.00949 µM, first compound 1 µM
# [25] = second compound 0.03 µM, first compound 0.00316 µM
# [26] = second compound 0.03 µM, first compound 0.01 µM
# [27] = second compound 0.03 µM, first compound 0.0316 µM
# [28] = second compound 0.03 µM, first compound 0.1 µM
# [29] = second compound 0.03 µM, first compound 0.316 µM
# [30] = second compound 0.03 µM, first compound 1 µM
# [31] = second compound 0.0949 µM, first compound 0.00316 µM
# [32] = second compound 0.0949 µM, first compound 0.01 µM
# [33] = second compound 0.0949 µM, first compound 0.0316 µM
# [34] = second compound 0.0949 µM, first compound 0.1 µM
# [35] = second compound 0.0949 µM, first compound 0.316 µM
# [36] = second compound 0.0949 µM, first compound 1 µM
# [37] = second compound 0.3 µM, first compound 0.00316 µM
# [38] = second compound 0.3 µM, first compound 0.01 µM
# [39] = second compound 0.3 µM, first compound 0.0316 µM
# [40] = second compound 0.3 µM, first compound 0.1 µM
# [41] = second compound 0.3 µM, first compound 0.316 µM
# [42] = second compound 0.3 µM, first compound 1 µM
# 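Note: spheroids exposed to compounds for 7 days.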
# 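Throughout, for viability, T/C: 100% = DMSO vehicle control viability.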
structure (smiles),measurement,setting,value
Nc1ccn(C2OC(CO)C(O)C2(F)F)c(=O)n1 (centres undefined) + CCn1c(-c2cccnc2C(C)OC)c2c3cc(ccc31)N1CCOC(CC(NC(=O)C(C(C)C)N(C)C(=O)C3(F)CCN(C(=O)C#CC(C)(C)N(C)C)CC3)C(=O)N3CCCC(N3)C(=O)OCC(C)(C)C2)C1,IC50,[1],< 3.16 nM
same,IC50,[2],< 3.16 nM
same,IC50,[3],< 3.16 nM
same,IC50,[4],< 3.16 nM
same,IC50,[5],< 3.16 nM
same,IC50,[6],< 3.16 nM
same,"viability, T/C",[7],25.9%
same,"viability, T/C",[8],23.6%
same,"viability, T/C",[9],25.8%
same,"viability, T/C",[10],23.4%
same,"viability, T/C",[11],23.1%
same,"viability, T/C",[12],18.5%
same,"viability, T/C",[13],22.8%
same,"viability, T/C",[14],20.6%
same,"viability, T/C",[15],20.3%
same,"viability, T/C",[16],17.5%
same,"viability, T/C",[17],16.3%
same,"viability, T/C",[18],13.8%
same,"viability, T/C",[19],22.7%
same,"viability, T/C",[20],20.1%
same,"viability, T/C",[21],17.9%
same,"viability, T/C",[22],15.7%
same,"viability, T/C",[23],15.6%
same,"viability, T/C",[24],15.2%
same,"viability, T/C",[25],18.8%
same,"viability, T/C",[26],22.6%
same,"viability, T/C",[27],17.1%
same,"viability, T/C",[28],13.3%
same,"viability, T/C",[29],14.6%
same,"viability, T/C",[30],16.9%
same,"viability, T/C",[31],17.2%
same,"viability, T/C",[32],17.9%
same,"viability, T/C",[33],15.9%
same,"viability, T/C",[34],13.1%
same,"viability, T/C",[35],13.3%
same,"viability, T/C",[36],12.9%
same,"viability, T/C",[37],14.2%
same,"viability, T/C",[38],17.2%
same,"viability, T/C",[39],14.3%
same,"viability, T/C",[40],12.4%
same,"viability, T/C",[41],12.5%
same,"viability, T/C",[42],11.4%
CC1(O)CCCC1n1c(=O)c(C(F)F)cc2cnc(NC3CCN(S(C)(=O)=O)CC3)nc21 (centres undefined),"viability, T/C",compound 0.0316 µM,82.7% [middle of 4 runs]
same,"viability, T/C",compound 0.316 µM,85.5% [middle of 4 runs]
same,"viability, T/C",compound 1 µM,91.1% [middle of 4 runs]
same,"viability, T/C",compound 10 µM,58.4% [middle of 4 runs]
same,IC50,curve of compound,8910 nM and > 10000 nM and 9300 nM
C=CC(=O)Nc1cc(Nc2nccc(-c3cn(C)c4ccccc34)n2)c(OC)cc1N(C)CCN(C)C + CCn1c(-c2cc(N3CCN(C)CC3)cnc2C(C)OC)c2c3cc(ccc31)-c1csc(n1)CC(NC(=O)C1CC1C)C(=O)N1CCCC(N1)C(=O)OCC(C)(C)C2,IC50,[1],< 3.16 nM
same,IC50,[2],< 3.16 nM
same,IC50,[3],< 3.16 nM
same,IC50,[4],< 3.16 nM
same,IC50,[5],< 3.16 nM
same,IC50,[6],< 3.16 nM
same,"viability, T/C",[7],32.2%
same,"viability, T/C",[8],25.2%
same,"viability, T/C",[9],26.4%
same,"viability, T/C",[10],21.6%
same,"viability, T/C",[11],23.1%
same,"viability, T/C",[12],24.7%
same,"viability, T/C",[13],26.1%
same,"viability, T/C",[14],20.3%
same,"viability, T/C",[15],20.2%
same,"viability, T/C",[16],17.2%
same,"viability, T/C",[17],16.4%
same,"viability, T/C",[18],18.9%
same,"viability, T/C",[19],20.4%
same,"viability, T/C",[20],17.9%
same,"viability, T/C",[21],17%
same,"viability, T/C",[22],14.1%
same,"viability, T/C",[23],14.5%
same,"viability, T/C",[24],17.1%
same,"viability, T/C",[25],19.9%
same,"viability, T/C",[26],18.6%
same,"viability, T/C",[27],16.8%
same,"viability, T/C",[28],14.4%
same,"viability, T/C",[29],15.1%
same,"viability, T/C",[30],15.6%
same,"viability, T/C",[31],20%
same,"viability, T/C",[32],17.4%
same,"viability, T/C",[33],19.2%
same,"viability, T/C",[34],16.9%
same,"viability, T/C",[35],16.1%
same,"viability, T/C",[36],18.7%
same,"viability, T/C",[37],19.3%
same,"viability, T/C",[38],20.9%
same,"viability, T/C",[39],19.1%
same,"viability, T/C",[40],16.5%
same,"viability, T/C",[41],16.5%
same,"viability, T/C",[42],20.8%
